Reference: patent US20140271727A1, “METHOD OF USING AN ANTIDEPRESSANT FOR INCREASING IMMUNITY OF A SUBJECT AND TREATING CANCER” (NATIONAL YANG-MING UNIVERSITY, priority 2013, published 2014)

Tests used:
CT26/luc cells = assay: MTT cell viability assay; format: cell-based, mouse; conditions: 0-80 μM for 24, 48 and 72 hrs
Experimental: The details in preparing the materials and processing relative analyses will be illustrated as follows. First, CT-26 murine colon carcinoma cells (obtained from Taiwan Liposome Company, Taipei, Taiwan) were transfected with the luciferase gene (hereafter called “CT26/luc”). The CT26/luc tumor cells were cultured in RPMI 1640 medium (Invitrogen) supplemented with 10% fetal bovine serum (Hyclone), 100 units/ml of penicillin, and […] streptomycin (Gibco-BRL) at 37° C. in a 5% CO2 atmosphere.
Before starting the following investigation. The cell viability is analyzed. 3-(4,5-Dimethylthiazol-2-yl)-2,5-diphenyltetrazolium bromide (MTT, Sigma, USA) was dissolved in phosphate-buffered saline (145 mM NaCl, 1.4 mM KH2PO4, 4.3 mM Na2HPO4, and 2.7 mM KCl, pH 7.2). The CT26/luc cells were seeded in 96-well plates overnight, and then treated with various concentrations, such as 0, 5, 10, 20, 40, and 80 μM, of mirtazapine for 24, 48, and 72 hrs. And then, cell viability was determined with MTT assay. […] After 4 hours incubation at 37° C., 100 μl DMSO was added to dissolve the MTT formazan, and the absorbance was determined with an ELISA reader (Power Wave X340, Bio-Tek Instrument Inc., USA) using a wavelength of 570 nm for the excitation. […] The cell cycle analysis was assayed using a FACScan (BD Sciences) and analyzed by CellQuest software (BD Sciences).

CD4+ and CD8+ T cells = assay: Lymph node CD4+ and CD8+ T lymphocyte subsets by FACS; format: in vivo, mouse; conditions: flow cytometry
Experimental: Preferably, the results as shown in FIG. 4C and FIG. 4D are performed by a flow cytometer, and a target cell population will be screened out by utilizing at least one flow cytometer to identify different surface markers of different cells. Flow cytometry allows for single cell analysis at speeds far surpassing any other single cell analysis technology in the art. This enables a statistically significant number of cells to be analyzed faster than using other alternative techniques. In a preferred embodiment, a flow cytometer is used with any suitable sample preparation robot or liquid handler that is known in the art. Furthermore, a single laser flow cytometer is used in an embodiment for the analyzing step. In another embodiment, a multi-laser flow cytometer is used for the analyzing step and the present invention is not limited thereto.
Second, all animal study protocols were approved by the Institutional Animal Care and Use Committee (IACAU) of National Yang Ming University. Mirtazapine (0.25 mg) was dissolved in 0.05 ml of 0.9% NaCl plus 0.5% absolute ethanol for each mouse (i.e. 10 mg/kg.) Male BALB/c mice (initial weights 25±2 g, and purchased from the National Laboratory Animal Center, Taipei, Taiwan) were housed in the cages, five mice per cage, under a 12:12 h reverse light/dark cycle with lights off at 6 pm Animals were handled and weighed daily for a week to reduce any non-specific stress responses. And then, please refer to FIG. 1A and FIG. 1B, FIG. 1A and FIG. 1B are diagrams showing the experimental designs according to an embodiment of the present invention. […] “Wild-type” means the mice are monitored without tumor inoculation and mirtazapine treatment, drug means the mice are monitored with continuous mirtazapine treatment but without tumor inoculation, never means the mice are monitored with tumor inoculation and daily 0.05 ml of 0.9% NaCl plus 0.5% absolute ethanol treatment but without mirtazapine treatment, always means the mice are monitored with mirtazapine treatment initiated 2 weeks before the tumor inoculation, and concurrent means the mice are monitored with tumor inoculation and mirtazapine treatment on the same day, and after means the mice are monitored with mirtazapine treatment initiated 2 weeks post the tumor inoculation. That is, the mice were assayed on day 22 for behaviors, and then sacrificed for the measurement of lymphocyte subsets and performed with ex vivo autoradiography.
As to the quantification of interleukin-12 (hereafter called “IL-12”), the whole blood withdrawn from the pouch of each mouse was centrifuged at 600×g for 20 min, and serum was collected. The serum IL-12p70 (sIL-12) level was determined using an ELISA kit (R&D Systems, Taiwan). Identification for the lymph node cluster of differentiated CD4+ T helper and CD8+T-cytotoxic lymphocyte subsets was assayed. Briefly, the lymphocytes isolated from the lymph nodes of groins of mice were stained with phycoerythrin-conjugated antimouse CD4 (CD4-PE) monoclonal antibody and peridininchlorophyll-protein-complex-conjugated anti-mouse CD8 (CD8-PerCP) monoclonal antibody (BioLegend, USA). Lymphocyte subsets were identified by FACS analysis using a FACS Calibur flow cytometer. Immunohistochemistry (IHC) of CD4 and CD8 was also performed on day 42 post the tumor inoculation. Tumors were then removed, paraffin embedded, and […] sectioning was performed. The sections were immunohistostained with antibodies against CD4 (BioLegend, USA) and CD8 (BioLegend, USA), respectively. The procedures of immunohistostaining were followed the protocols provided with the IHC kit (Millipore, USA). All images were digitally captured on a Scanscope CS system (Aperio, USA).

IFN-γ = IFN-γ level in tumor by ELISA; format: in vivo, mouse; conditions: tumor lysate 6 weeks after tumor inoculation, 2 mg tumor protein
Experimental: And then, the level of IFN-γ in the tumor was determined using an ELISA kit (R&D Systems, Taiwan). Briefly, 6 weeks after tumor inoculation, the mice were sacrificed and the tumors were quickly removed and minced, then added with lysis buffer containing 1% protease inhibitor cocktail (T-PER tissue protein extraction reagent, Thermo Scientific, USA). After sonication, the cell mixture was centrifuged with 15000 rpm (Kubota centrifuge 1700, Japan) at 4° C. for 10 min The supernatant was collected for the protein quantification using bovine serum albumin as the standard. Two mg of the tumor proteins was used for the quantification of IFN-γ.

[1] = group Always, CT26/luc tumor-bearing
[2] = group Concurrent, CT26/luc tumor-bearing
[3] = group Drug: continuous mirtazapine 10 mg/kg/d, no tumor
[4] = group after, CT26/luc tumor-bearing

## CN1CCN2c3ncccc3Cc3ccccc3C2C1 (stereo not drawn) [mirtazapine]
CT26/luc cells
  toxicity to CT26 colon cells: nontoxic
CD4+ and CD8+ T cells; [1]
  CD4+ T cells (10^4 events): 29.75 ± 1.96%
  CD8+ T cells (10^4 events): 32.77 ± 7.43%
CD4+ and CD8+ T cells; [2]
  CD4+ T cells (10^4 events): 25.77 ± 0.73%
  CD8+ T cells (10^4 events): 22.41 ± 5.03%
CD4+ and CD8+ T cells; [3]
  CD4+ T cells (10^4 events): 30.97 ± 1.40%
  CD8+ T cells (10^4 events): 30.95 ± 6.57%
CD4+ and CD8+ T cells; [4]
  CD4+ T cells (10^4 events): 22.58 ± 1.15%
  CD8+ T cells (10^4 events): 15.86 ± 4.78%
IFN-γ; group Always
  IFN-γ in tumor: 85.35 ± 4.5 pg/mL
IFN-γ; group Concurrent
  IFN-γ in tumor: 39.42 ± 7.42 pg/mL
IFN-γ; group after
  IFN-γ in tumor: 19.60 ± 1.13 pg/mL
